Patent US7153815B2, “Insecticide containing hydrazone derivative as the active ingredient and novel hydrazone derivative” (Nihon Nohyaku Co., Ltd., priority 2002, dated 2006)

Experiments:
[1] = test system: larvae of cabbage moth (Plutella xylostera); test: Insecticidal effect against larvae of cabbage moth (leaf immersion); type: in vivo
Description: Insecticidal Effect Against Larvae of Cabbage Moth (Plutella xylostera)
(§1) A piece of cabbage leaf (diameter: 6 cm) was immersed for 1 minute in a water-diluted solution of the insecticide (wettable powder) of the present invention prepared according to the prescription of Formulation Example 1. After immersion, the cabbage was air-dried and placed in a plastic cup (inner diameter: 7 cm), and then inoculated with 5 larvae of cabbage moth in the third stage therein (1-concentration, 2-repetion). The cup was allowed to stand in a room thermostated at 25° C. Four days after the inoculation, dead or alive larvae or suffuring larvae were counted, and mortality (%) was calculated wherein a suffering larva was regarded as 0.5 dead larva. When compounds of Compound Nos. described below were subjected to the test, the mortality was 100% in a compound concentration of 500 ppm. In the meanwhile, the Compounds Nos. correspond to ones in Tables 1 to 8.

[2] = test system: larvae of common cutworm (Spodoptera litura); test: Insecticidal effect against larvae of common cutworm (leaf immersion); type: in vivo; settings: in Brassica oleracea
Description: Insecticidal Effect Against Larvae of Common Cutworm (Spodoptera litura)
as §1, with “powder),of” for “powder) of”, “common cutworm” for “cabbage moth”

## O=C(NCc1ccc(Cl)nc1)C(Cl)=NNc1ccc(C(F)(F)F)cc1 [Compound No. 5, N-(6-chloro-3-pyridylmethyl)-2-chloro-2-(4-trifluoromethylphenyl hydrazono) acetic acid amide]
[1]
  mortality at 500 ppm: 100%

## CC(=NNc1ccc(C(F)(F)F)cc1)C(=O)NCc1ccc(Cl)cc1 [Compound No. 62, N-(4-chlorobenzyl)-2-(4-trifluoromethylphenyl hydrazono) propionic acid amide]
[2]
  mortality at 500 ppm: 100%
[1]
  mortality at 500 ppm: 100%

## CC(=NNc1ccc(C(F)(F)F)cc1)C(=O)NCc1ccc(Cl)nc1 [Compound No. 63, N-(6-chloro-3-pyridylmethyl)-2-(4-trifluoromethylphenyl hydrazono) propionic acid amide]
[2]
  mortality at 500 ppm: 100%
[1]
  mortality at 500 ppm: 100%

## COc1ccc(CNC(=O)C(C)=NNc2ccc(Cl)cc2)cc1 [Compound No. 93, N-(4-methoxybenzyl)-2-(4-chlorophenyl hydrazono) propionic acid amide]
[1]
  mortality at 500 ppm: 100%

## C/C(=N\Nc1ccc(Cl)cc1)C(=O)NNc1ccc(Cl)cc1 [Compound No. 104, (E)-N′-(4-chlorophenyl)-2-(4-chlorophenyl hydrazono) propionic acid hydrazide]
[2]
  mortality at 500 ppm: 100%
[1]
  mortality at 500 ppm: 100%

## C/C(=N/Nc1ccc(Cl)cc1)C(=O)NNc1ccc(Cl)cc1 [Compound No. 105, (Z)-N′-(4-chlorophenyl)-2-(4-chlorophenyl hydrazono) propionic acid hydrazide]
[2]
  mortality at 500 ppm: 100%
[1]
  mortality at 500 ppm: 100%

## CC(=NN(C)c1ccc(C(F)(F)F)cc1)C(=O)NCc1ccc(Cl)cc1 [Compound No. 109, N-(4-chlorobenzyl)-2-[N-methyl-N-(4-trifluoromethylphenyl) hydrazono]propionic acid amide]
[2]
  mortality at 500 ppm: 100%
[1]
  mortality at 500 ppm: 100%

## CC(=NN(C)c1ccc(C(F)(F)F)cc1)C(=O)NCc1ccc(Cl)nc1 [Compound No. 110, N-(6-chloro-3-pyridylmethyl)-2-[N-methyl-N-(4-trifluoromethylphenyl) hydrazono]propionic acid amide]
[2]
  mortality at 500 ppm: 100%
[1]
  mortality at 500 ppm: 100%

## CCOCC(=NNc1ccc(C(F)(F)F)cc1)C(=O)NCc1ccc(Cl)nc1 [Compound No. 170, N-(6-chloro-3-pyridylmethyl)-3-ethoxy-2-(4-trifluoromethylphenyl hydrazono) propionic acid amide]
[1]
  mortality at 500 ppm: 100%

## N#CC(=NNc1ccc(C(F)(F)F)cc1)C(=O)NCc1ccc(Cl)nc1 [Compound No. 184, N-(6-chloro-3-pyridylmethyl)-2-cyano-2-(4-trifluoromethylphenyl hydrazono) acetic acid amide]
[2]
  mortality at 500 ppm: 100%
[1]
  mortality at 500 ppm: 100%

## CNC(=NNc1ccc(C(F)(F)F)cc1)C(=O)NCc1ccc(Cl)nc1 [Compound No. 191, N-(6-chloro-3-pyridylmethyl)-2-methylamino-2-(4-trifluoromethylphenyl hydrazono) acetic acid amide]
[2]
  mortality at 500 ppm: 100%
[1]
  mortality at 500 ppm: 100%
